Data taken from patent US8017792B2, “1-thio-D-glucitol derivatives” (Taisho Pharmaceutical Co., Ltd., priority 2005, dated 2011).
pIC50: −log10 of the molar value.

Legend:
[1] = target: T1, Human SGLT2 (Homo sapiens, UniProt P31639); assay: Sodium-dependent sugar uptake inhibition test in CHO-K1 cells stably expressing human SGLT2 (Test Example 2); format: cell-based; details: for pIC50: CHO-K1 cells, [14C]methyl-α-D-glucopyranoside 1 mM, 37° C., one hour; for SGLT1/SGLT2: ratio of IC50 human SGLT1 to IC50 human SGLT2
T1 construct: expressed in transfected cells; host or cells: CHO-K1
T1 sequence (P31639 1-672): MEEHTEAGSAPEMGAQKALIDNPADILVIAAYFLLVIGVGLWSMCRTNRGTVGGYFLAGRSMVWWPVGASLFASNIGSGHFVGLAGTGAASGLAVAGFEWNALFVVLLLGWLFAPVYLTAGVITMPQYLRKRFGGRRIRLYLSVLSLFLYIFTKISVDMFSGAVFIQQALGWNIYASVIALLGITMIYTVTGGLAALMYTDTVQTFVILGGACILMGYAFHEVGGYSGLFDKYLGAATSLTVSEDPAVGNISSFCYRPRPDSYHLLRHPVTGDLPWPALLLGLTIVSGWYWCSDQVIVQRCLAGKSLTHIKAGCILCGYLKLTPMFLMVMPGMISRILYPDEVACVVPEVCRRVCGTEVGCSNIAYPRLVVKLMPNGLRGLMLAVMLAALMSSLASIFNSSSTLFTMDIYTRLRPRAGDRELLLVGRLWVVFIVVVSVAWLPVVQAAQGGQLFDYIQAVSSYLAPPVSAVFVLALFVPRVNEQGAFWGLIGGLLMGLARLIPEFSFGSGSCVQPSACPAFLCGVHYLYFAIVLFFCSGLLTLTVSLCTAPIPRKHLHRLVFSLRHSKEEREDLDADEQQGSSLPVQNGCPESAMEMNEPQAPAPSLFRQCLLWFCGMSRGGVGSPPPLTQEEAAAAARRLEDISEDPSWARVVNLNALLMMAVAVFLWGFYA
Method: (§1) Human SGLT1 sequence (NM_000343) was reverse-transcripted from human small intestinal mRNA, then amplified, and then introduced into pCMV-tag5A from Stratagene Corporation. Human SGLT2 sequence (NM_003041) was prepared from human nephric mRNA as with the above method, and then introduced into pcDNA3.1+hygro from Invitrogen Corporation. Each cloned sequence was confirmed to be identical with the reported sequence.
(§2) CHO-K1 cells were transfected with the human SGLT1 and human SGLT2 expression vectors using Lipofectamine 2000 (Invitrogen Corporation). SGLT expression cells were cultured in the presence of geneticin (SGLT1) or hygromycin B (SGLT2) of the concentration of 500 μg/mL to select resistant strains. Cells were obtained using sugar uptake specific activity as an index in the following system.
(§3) Cells stably expressing human SGLT1 and human SGLT2 were used in the sodium-dependent sugar uptake activity inhibition test. Cells were incubated in 1 mL of a pretreatment buffer solution (140 mM choline chloride, 2 mM KCl, 1 mM CaCl2, 1 mM MgCl2, 10 mM HEPES/5 mM Tris, pH 7.4) for 20 minutes. The pretreatment buffer solution was removed and 200 μL of an uptake buffer containing test compounds (methyl-α-D-glucopyranoside containing [^14C]methyl-α-D-glucopyranoside (0.1 mM for SGLT1 inhibition, 1 mM for SGLT2 inhibition), 140 mM NaCl, 2 mM KCl, 1 mM CaCl2, 1 mM MgCl2, 10 mM HEPES/5 mM Tris, pH 7.4) were added, and uptake reaction was performed at 37° C. for 30 minutes (SGLT1) or for one hour (SGLT2). After the reaction, cells were washed with 1 mL of a washing buffer (10 mM methyl-α-D-glucopyranoside, 140 mM choline chloride, 2 mM KCl, 1 mM CaCl2, 1 mM MgCl2, 10 mM HEPES/5 mM Tris, pH 7.4) twice and dissolved in 400 μL of 0.2 M NaOH solution. After Aquazole 2 (Perkin Elmer Corporation) was added and mixed well, radioactivity was measured with a liquid scintillation counter (Beckman Coulter Corporation). A buffer for uptake which contained no test compound was prepared as a control group. Another buffer solution for uptake containing choline chloride in place of NaCl was also prepared for basic uptake.

[2] = target: T2, Human SGLT1 (Homo sapiens, UniProt P13866); assay: Sodium-dependent sugar uptake inhibition test in CHO-K1 cells stably expressing human SGLT1 (Test Example 2); format: cell-based; details: [14C]methyl-α-D-glucopyranoside 0.1 mM, 37° C., 30 minutes
T2 construct: expressed in transfected cells; host or cells: CHO-K1
T2 sequence (P13866 1-664): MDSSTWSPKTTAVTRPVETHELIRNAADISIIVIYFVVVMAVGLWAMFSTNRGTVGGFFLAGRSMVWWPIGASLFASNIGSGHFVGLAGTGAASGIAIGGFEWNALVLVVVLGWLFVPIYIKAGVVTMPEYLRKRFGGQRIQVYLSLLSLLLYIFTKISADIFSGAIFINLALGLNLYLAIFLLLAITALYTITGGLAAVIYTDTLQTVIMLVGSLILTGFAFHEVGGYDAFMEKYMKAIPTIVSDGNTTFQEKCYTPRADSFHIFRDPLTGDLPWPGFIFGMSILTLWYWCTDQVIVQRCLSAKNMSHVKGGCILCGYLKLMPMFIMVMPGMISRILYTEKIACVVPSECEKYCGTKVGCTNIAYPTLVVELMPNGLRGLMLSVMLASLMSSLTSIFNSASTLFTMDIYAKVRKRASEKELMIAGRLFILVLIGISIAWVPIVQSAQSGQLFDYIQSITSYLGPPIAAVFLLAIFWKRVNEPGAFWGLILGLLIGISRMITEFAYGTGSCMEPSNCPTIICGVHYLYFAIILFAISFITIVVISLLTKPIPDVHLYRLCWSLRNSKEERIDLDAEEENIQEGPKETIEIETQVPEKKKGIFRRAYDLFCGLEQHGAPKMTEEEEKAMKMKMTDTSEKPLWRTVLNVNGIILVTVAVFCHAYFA
Method: as §1, §2, §3

| SMILES | pIC50 [1] | SGLT1/SGLT2 [1] | pIC50 [2] |
| --- | --- | --- | --- |
| CCc1ccc(Cc2cccc([C@@H]3S[C@H](CO)[C@@H](O)[C@H](O)[C@H]3O)c2)cc1 [Compound 74, (1S)-1,5-anhydro-1-[3-(4-ethylbenzyl)phenyl]-1-thio-D-glucitol] | 5.92 | 12.8 | 4.82 |
| CCOc1ccc(Cc2cc([C@@H]3S[C@H](CO)[C@@H](O)[C@H](O)[C@H]3O)ccc2OC)cc1 [Compound 77, (1S)-1,5-Anhydro-1-[3-(4-ethoxybenzyl)-4-methoxyphenyl]-1-thio-D-glucitol] | 6.16 | 11.6 | 5.10 |
| CCOc1ccc(Cc2ccc(OC)c([C@@H]3S[C@H](CO)[C@@H](O)[C@H](O)[C@H]3O)c2)cc1 [Compound 78, (1S)-1,5-Anhydro-1-[3-(4-ethoxybenzyl)-6-methoxy-phenyl]-1-thio-D-glucitol] | 5.98 | 115.4 | 3.92 |
| CCOc1ccc(Cc2cc([C@@H]3S[C@H](CO)[C@@H](O)[C@H](O)[C@H]3O)c(OC)cc2OC)cc1 [Compound 80, (1S)-1,5-Anhydro-1-[4,6-dimethoxy-3-(4-ethoxybenzyl)phenyl]-1-thio-D-glucitol] | 6.72 |  | 5.54 |
| CCOc1ccc(Cc2cc([C@@H]3S[C@H](CO)[C@@H](O)[C@H](O)[C@H]3O)ccc2F)cc1 [Compound 81, (1S)-1,5-Anhydro-1-[3-(4-ethoxybenzyl)-4-fluorophenyl]-1-thio-D-glucitol] | 6.22 | 10.9 | 5.19 |
| CCOc1ccc(Cc2cc([C@@H]3S[C@H](CO)[C@@H](O)[C@H](O)[C@H]3O)ccc2O)cc1 [Compound 82, (1S)-1,5-Anhydro-1-[3-(4-ethoxybenzyl)-4-hydroxyphenyl]-1-thio-D-glucitol] | 5.42 | 4.0 | 4.82 |
| CCOc1ccc(Cc2cc([C@@H]3S[C@H](CO)[C@@H](O)[C@H](O)[C@H]3O)ccc2C)cc1 [Compound 86, (1S)-1,5-Anhydro-1-[3-(4-ethoxybenzyl)-4-methylphenyl]-1-thio-D-glucitol] | 7.22 | 18.3 | 5.96 |
| COc1ccc(Cc2cc([C@@H]3S[C@H](CO)[C@@H](O)[C@H](O)[C@H]3O)ccc2Cl)cc1 [Compound 88, (1S)-1,5-Anhydro-1-[4-chloro-3-(4-methoxybenzyl)phenyl]-1-thio-D-glucitol] | 7.10 | 2.8 | 6.70 |
| CCOc1ccc(Cc2cc([C@@H]3S[C@H](CO)[C@@H](O)[C@H](O)[C@H]3O)c(OC)cc2C)cc1 [Compound 89, (1S)-1,5-anhydro-1-[3-(4-ethoxybenzyl)-6-methoxy-4-methylphenyl]-1-thio-D-glucitol] | 7.19 | 97.5 | 5.20 |
| CCOc1ccc(Cc2cc([C@@H]3S[C@H](CO)[C@@H](O)[C@H](O)[C@H]3O)ccc2Cl)c(F)c1 [Compound 91, (1S)-1,5-Anhydro-1-[4-chloro-3-(2-fluoro-4-ethoxybenzyl)phenyl]-1-thio-D-glucitol] | 6.96 | 15.5 | 5.77 |
| Cc1ccc(Cc2cc([C@@H]3S[C@H](CO)[C@@H](O)[C@H](O)[C@H]3O)ccc2Cl)cc1 [Compound 92, (1S)-1,5-Anhydro-1-[4-chloro-3-(4-methylbenzyl)phenyl]-1-thio-D-glucitol] | 7.52 | 7.7 | 6.70 |
| CSc1ccc(Cc2cc([C@@H]3S[C@H](CO)[C@@H](O)[C@H](O)[C@H]3O)ccc2Cl)cc1 [Compound 93, (1S)-1,5-Anhydro-1-[4-chloro-3-(4-methylthiobenzyl)phenyl]-1-thio-D-glucitol] | 7.68 | 21.0 | 6.40 |
| OC[C@H]1S[C@@H](c2ccc(Cl)c(Cc3ccc(O)cc3)c2)[C@H](O)[C@@H](O)[C@@H]1O [Compound 94, (1S)-1,5-Anhydro-1-[4-chloro-3-(4-hydroxybenzyl)phenyl]-1-thio-D-glucitol] | 6.60 | 1.3 | 6.52 |
| CCc1ccc(Cc2cc([C@@H]3S[C@H](CO)[C@@H](O)[C@H](O)[C@H]3O)ccc2Cl)cc1 [Compound 95, (1S)-1,5-Anhydro-1-[4-chloro-3-(4-ethylbenzyl)phenyl]-1-thio-D-glucitol] | 7.55 | 22.3 |  |
| CC(C)c1ccc(Cc2cc([C@@H]3S[C@H](CO)[C@@H](O)[C@H](O)[C@H]3O)ccc2Cl)cc1 [Compound 96, (1S)-1,5-Anhydro-1-[4-chloro-3-(4-isopropylbenzyl)phenyl]-1-thio-D-glucitol] | 7.21 | 116.3 | 5.14 |

Now from value to compound:

| pIC50 [1] | SGLT1/SGLT2 [1] | pIC50 [2] | SMILES |
| --- | --- | --- | --- |
| 7.82 | 6.5 | 7.00 | CCOc1ccc(Cc2cc([C@@H]3S[C@H](CO)[C@@H](O)[C@H](O)[C@H]3O)c(O)cc2C)cc1 [Compound 98, (1S)-1,5-Anhydro-1-[3-(4-ethoxybenzyl)-6-hydroxy-4-methylphenyl]-1-thio-D-glucitol] |
| 7.49 | 178.6 | 5.25 | CCOc1ccc(Cc2cc([C@@H]3S[C@H](CO)[C@@H](O)[C@H](O)[C@H]3O)c(OC)cc2Cl)cc1 [Compound 99, (1S)-1,5-anhydro-1-[4-chloro-5-(4-ethoxybenzyl)-2-methoxyphenyl]-1-thio-D-glucitol] |
| 7.40 | 63.1 | 5.59 | CCc1ccc(Cc2cc([C@@H]3S[C@H](CO)[C@@H](O)[C@H](O)[C@H]3O)c(OC)cc2C)cc1 [Compound 101, (1S)-1,5-Anhydro-1-[3-(4-ethylbenzyl)-6-methoxy-4-methylphenyl]-1-thio-D-glucitol] |
| 5.54 |  |  | OC[C@H]1S[C@@H](c2cccc(Cc3ccc(-c4ccccc4)s3)c2)[C@H](O)[C@@H](O)[C@@H]1O [Compound 134] |
| 4.48 |  |  | CCOc1ccc(Cc2cncc([C@@H]3S[C@H](CO)[C@@H](O)[C@H](O)[C@H]3O)c2)cc1 [Compound 138, (1S)-1,5-anhydro-1-[5-(4-ethoxybenzyl)pyridin-3-yl]-1-thio-D-glucitol] |
| 3.94 |  |  | CCc1ccc(Cc2ccc([C@@H]3S[C@H](CO)[C@@H](O)[C@H](O)[C@H]3O)s2)cc1 [Compound 139, (1S)-1,5-anhydro-1-[5-(4-ethylbenzyl)thiophen-2-yl]-1-thio-D-glucitol] |
